# According to ChEMBL document CHEMBL3885861, “Open TG-GATES”:
# Species on record: Rattus norvegicus
# Test: Open TG-GATES - Regimen: Single
# Format: toxicity, organism-based, Sprague-Dawley
# Set-up: regimen Single, gender Male, age 6 weeks
# Conditions: in vivo, po, 10 mg/kg, route gavage, dose level Middle; for APTT / Bas / Eos / Fbg / Hb / Ht / Lym / MCH / MCHC / Mono / Neu / Plat / RBC / Ret / WBC: tissue Blood; for KIDNEY_L / KIDNEY_R / KIDNEY_TOTAL: tissue Kidney; for LIVER: tissue Liver
smiles,measurement,setting,value
O=C(CCCN1CCC(O)(c2ccc(Cl)cc2)CC1)c1ccc(F)cc1 [HALOPERIDOL],gamma-GTP,"6 h, tissue Plasma",1.2 IU/L
same,TERMINAL_BW,9 h,195.8 g
same,APTT,9 h,17 s
same,Bas,9 h,0%
same,Eos,9 h,0.4%
same,Fbg,9 h,210 mg/dL
same,Hb,9 h,13.9 g/dL
same,Ht,9 h,41.8%
same,Lym,9 h,75.8%
same,MCH,9 h,21.8 pg
same,MCHC,9 h,33.4%
same,Mono,9 h,7.8%
same,Neu,9 h,16%
same,Plat,9 h,101.8 x10_4/uL
same,RBC,9 h,641.2 x10_4/ul
same,Ret,9 h,8.6%
same,WBC,9 h,63.2 x10_2/uL
same,KIDNEY_L,9 h,0.9 g
same,KIDNEY_R,9 h,0.9 g
same,KIDNEY_TOTAL,9 h,1.7 g
same,LIVER,9 h,8.4 g
same,ALP,"9 h, tissue Plasma",812.8 IU/L
same,ALT,"9 h, tissue Plasma",27.8 IU/L
same,AST,"9 h, tissue Plasma",53.8 IU/L
same,BUN,"9 h, tissue Plasma",9.2 mg/dL
same,CRE,"9 h, tissue Plasma",0.6 mg/dL
same,Ca,"9 h, tissue Plasma",10.1 mg/dL
same,Cl,"9 h, tissue Plasma",107 meq/L
same,DBIL,"9 h, tissue Plasma",0.024 mg/dL
same,GLC,"9 h, tissue Plasma",200.2 mg/dL
same,IP,"9 h, tissue Plasma",11.1 mg/dL
same,K,"9 h, tissue Plasma",4.6 meq/L
same,LDH,"9 h, tissue Plasma",100 IU/L
same,Na,"9 h, tissue Plasma",139.6 meq/L
same,PL,"9 h, tissue Plasma",134.2 mg/dL
same,RALB,"9 h, tissue Plasma",3.7 g/dL
same,TBIL,"9 h, tissue Plasma",0.4 mg/dL
same,TC,"9 h, tissue Plasma",76.4 mg/dL
same,TG,"9 h, tissue Plasma",25.8 mg/dL
same,TP,"9 h, tissue Plasma",5.5 g/dL
same,gamma-GTP,"9 h, tissue Plasma",2.6 IU/L
same,TERMINAL_BW,24 h,213.1 g
same,APTT,24 h,16.2 s
same,Bas,24 h,0%
same,Eos,24 h,1.2%
same,Fbg,24 h,193.4 mg/dL
same,Hb,24 h,14.2 g/dL
same,Ht,24 h,42.4%
same,Lym,24 h,82%
same,MCH,24 h,21.9 pg
same,MCHC,24 h,33.5%
same,Mono,24 h,6.8%
same,Neu,24 h,10%
same,Plat,24 h,114.7 x10_4/uL
same,RBC,24 h,648 x10_4/ul
same,Ret,24 h,8.2%
same,WBC,24 h,76.5 x10_2/uL
same,KIDNEY_L,24 h,1 g
same,KIDNEY_R,24 h,0.9 g
same,KIDNEY_TOTAL,24 h,1.9 g
same,LIVER,24 h,10.5 g
same,ALP,"24 h, tissue Plasma",1019.6 IU/L
same,ALT,"24 h, tissue Plasma",32.6 IU/L
same,AST,"24 h, tissue Plasma",62.2 IU/L
same,BUN,"24 h, tissue Plasma",23.8 mg/dL
same,CRE,"24 h, tissue Plasma",0.5 mg/dL
same,Ca,"24 h, tissue Plasma",11.2 mg/dL
same,Cl,"24 h, tissue Plasma",104.6 meq/L
same,DBIL,"24 h, tissue Plasma",0.034 mg/dL
same,GLC,"24 h, tissue Plasma",182.4 mg/dL
same,IP,"24 h, tissue Plasma",8.2 mg/dL
same,K,"24 h, tissue Plasma",5 meq/L
same,LDH,"24 h, tissue Plasma",102.4 IU/L
same,Na,"24 h, tissue Plasma",140 meq/L
same,PL,"24 h, tissue Plasma",160.2 mg/dL
same,RALB,"24 h, tissue Plasma",3.9 g/dL
same,TBIL,"24 h, tissue Plasma",0.3 mg/dL
same,TC,"24 h, tissue Plasma",79.8 mg/dL
same,TP,"24 h, tissue Plasma",6 g/dL
same,gamma-GTP,"24 h, tissue Plasma",1 IU/L
